# According to publication PMC7918931 (Viruses, 2021):
# Tests used:
# GST-SMURF2-WW3 = GST-SMURF2-WW3 (Homo sapiens, UniProt Q9HAU4); type: binding; conditions: pH 7.4
# [1] = system: SMURF2 WW domain #3 (SMURF2-3); type: binding
# [2] = system: ~115 known WW domains (GST-fusion proteins); type: binding, mammalian
# GST-SMURF2-WW3, sequence (Q9HAU4 297-330): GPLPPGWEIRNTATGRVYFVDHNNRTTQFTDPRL
compound,measurement,setting,value
CC[C@H](C)[C@H](NC(=O)[C@H](C)NC(=O)[C@H](CCC(=O)O)NC(=O)[C@H](CCSC)NC(=O)[C@H](Cc1ccc(O)cc1)NC(=O)[C@H](CCC(=O)O)NC(=O)[C@@H]1CCCN1C(=O)[C@@H]1CCCN1C(=O)[C@H](C)NC(=O)[C@@H](NC(=O)[C@@H]1CCCN1C(=O)[C@H](CC(C)C)NC(=O)[C@@H](NC(=O)[C@@H](NC(=O)[C@H](CCCNC(=N)N)NC(=O)[C@H](CCCNC(=N)N)NC(=O)[C@@H](N)CCSC)C(C)C)[C@@H](C)CC)[C@@H](C)O)C(=O)N[C@@H](CCCCNC(=O)CCCC[C@@H]1SC[C@@H]2NC(=O)N[C@@H]21)C(=O)O [eVP40-WT peptide],Bmax,GST-SMURF2-WW3,39 RU
same,interaction with SMURF2 WW domain #3 on array,[1],positive interaction
same,interaction with host WW domains on array,[2],interacted with a select number of host WW domains
